Assay results reported in patent US20230404998A1, “Combination Therapies for Treating Cancer” (ASCENTAGE PHARMA (SUZHOU) CO., LTD., priority 2020, published 2023).
Marks after values point to notes of the source that are not given here.

What was measured:
Parameters in all cases: species or system mouse
Details in all cases: ABL001 60 mg/kg, Ponatinib 20 mg/kg, HQP1351 20 mg/kg
[1] = tested on: E255V/T315I orthotopic tumor model; test: In vivo efficacy, E255V/T315I orthotopic tumor model
Procedure: (§1) In vivo efficacy was evaluated using the syngeneic mouse model derived from BaF3 cells with T315I and/or compound mutations. Tumor models were established by intravenously injecting tumor cells (1×10^5/mouse) into the caudal vein under sterile conditions. Mice were randomized into control and treatment groups with 8-10 mice per group and start the treatment from the second day post inoculation. The animal body weights were measured twice a week. The antitumor activity curves of test articles were plotted with the treatment time (day) on the X-axis, and corresponding survival rate on the Y-axis. A Log-rank (Mental-cox) test was employed to analyze the statistical significance of any difference between the treatment group and the control group. Prism version 7 (GraphPad Software Inc., San Diego, CA) was used for all statistical analysis and for graphic presentation.

[2] = tested on: T315I orthotopic tumor model; test: In vivo efficacy, T315I orthotopic tumor model
Procedure: as §1

[3] = tested on: F317L/T315I orthotopic tumor model; test: In vivo efficacy, F317L/T315I orthotopic tumor model
Procedure: as §1

[4] = tested on: Y253H/T315I orthotopic tumor model; test: In vivo efficacy, Y253H/T315I orthotopic tumor model
Procedure: as §1

For `O=C(Nc1ccc(OC(F)(F)Cl)cc1)c1cnc(N2CC[C@@H](O)C2)c(-c2cc[nH]n2)c1` [ABL001, asciminib], the Median survival [1] was 27.0****, the “Survival prolongation (%)” value [1] was 28.57% and the “Survive/Total @ D26” value [1] was 0/10. For the same compound, the Median survival [2] was 24.5****, the “Survival prolongation (%)” value [2] was 16.67% and the “Survive/Total @ D43” value [2] was 0/10. For the same compound, the Median survival [3] was 18.0, the “Survival prolongation (%)” value [3] was 2.86% and the “Survive/Total @ 24” value [3] was 0/8. The Median survival [4] was 21.0***, the “Survival prolongation (%)” value [4] was 23.53% and the “Survive/Total @ 24” value [4] was 0/8.

`Cc1ccc(C(=O)Nc2ccc(CN3CCN(C)CC3)c(C(F)(F)F)c2)cc1C#Cc1cnc2cccnn12` [Ponatinib] was tested, and the Median survival [1] was 24.5****, the “Survival prolongation (%)” value [1] was 16.67% and the “Survive/Total @ D26” value [1] was 0/10. The Median survival [2] was 27.0****, the “Survival prolongation (%)” value [2] was 28.57% and the “Survive/Total @ D43” value [2] was 0/10. For the same compound, the Median survival [3] was 27.0****, the “Survival prolongation (%)” value [3] was 54.29% and the “Survive/Total @ 24” value [3] was 1/8. The Median survival [4] was 20.0**, the “Survival prolongation (%)” value [4] was 17.65% and the “Survive/Total @ 24” value [4] was 0/8.
